Laboratory results taken from US11484607B2, “PSMA-targeted NIR dyes and their uses” (On Target Laboratories, LLC, priority 2015, dated 2022).

Key:
A549 tumor xenografts = assay: OTL78 whole body imaging and tissue biodistribution, subcutaneous tumor; assay type: in vivo, mice; conditions: 10 nmol, 2 h
Procedure: Whole body Imaging & Tissue biodistribution: Seven-week-old male nu/nu mice were inoculated subcutaneously with 5.0×106 22Rv1, LNCaP, PC3 or A549 cells/mouse in 50% high concentrated matrigel with RPMI1640 medium on the shoulder. Growth of the tumors was measured in perpendicular directions every 2 days using a caliper (body weights were monitored on the same schedule), and the volumes of the tumors were calculated as 0.5×L×W2 (L=longest axis and W=axis perpendicular to L in millimeters). Once tumors reached approximately 300-400 mm3 in volume, animals (3-5 mice/group) were intravenously injected with appropriate dose of OTL78 in saline.
For whole body imaging and biodistribution studies, animals were euthanized after 2 h of administration of OTL78 by CO2 asphyxiation. For time dependent studies, animals were imaged under anesthesia using isoflurane. Imaging experiments were then performed using IVIS or AMI image systems. Following whole body imaging, animals were dissected and selected tissues were analyzed for fluorescence activity using IVIS or AMI image system and ROI of the tissues were calculated using Living Image 4.0 software or AMIView Image Analysis Software.

22Rv1 tumor xenografts = assay: Fluorescence-guided surgery of prostate tumors with OTL78; assay type: in vivo, mice
Procedure: Growth of the tumors was measured as previously mentioned. After one month, the animals were mixed and divided into 2 groups (n=5 mice/group). Two hours after administering OTL78 (10 nmol in 100 μL saline per mouse), animals were given 1-5% isoflurane for anesthesia and imaged using AMI image system. After an insertion was made using scalpel through the skin, surgical removal of the tumors was performed either following conventional technique (e.g. visualization under white light or palpation) or with the aid of fluorescence guidance (FGS: debulking of visible tumors under conventional method followed by resection of residual fluorescence tissues under image-guided method). After the surgery, the skin was closed using staples and imaged the mice using AMI image system. After imaging, the residual fluorescent tissues from selected mice of conventional surgery group and tissues samples from the tumor beds of selected mice of FGS group were submit for pathological (IHC) analysis. Response to surgical treatment was monitored for over 30 days by imaging using AMI image system 2 h after injecting OTL78 (10 nmol/mouse) and by measuring the growth of the tumor volume using a caliper. Any animal with tumor volume ≥1000 mm3 were euthanized. Tumor-free survival of the mice was documented as % survival vs. time using GraphPad Prism 6. IHC studies were done as explained bellow in the Safety Studies.

[1] = Concentration dependent UV spectrometric study of higher order aggregates; assay type: physicochemical; conditions: 75 μM in saline
Procedure: Possible OTL78-related hypersensitivity in human was next examined using basophil activation assay. Drug related hypersensitivity is mainly due to immune response caused by cross-linking of immunoglobulin E (IgE) expressed on mast cells and basophils (FIG. 47D) resulting in activation and subsequent degranulation to release vasoactive amines, prostaglandins, and cytokines (29). Since cross-linking of IgE can be due to aggregates, concentration dependent UV spectrometric studies were conducted to determine higher order aggregates of OTL78.

Q: Which results are given for CC1(C)C(/C=C/C2=C(Oc3ccc(C[C@H](NC(=O)[C@H](Cc4ccccc4)NC(=O)CCOCCOCCNC(=O)CC[C@H](NC(=O)N[C@@H](CCC(=O)O)C(=O)O)C(=O)O)C(=O)O)cc3)C(=C/C=C3/N(CCCCS(=O)(=O)O)c4ccc(S(=O)(=O)O)cc4C3(C)C)/CCC2)=[N+](CCCCS(=O)(=O)[O-])c2ccc(S(=O)(=O)O)cc21 [OTL78]?
A: fluorescence intensity of A549 tumors compared to 22Rv1 tumors (A549 tumor xenografts): ~6 folds less; time to localize 22Rv1 tumors with high contrast (22Rv1 tumor xenografts; 10 nmol, preoperative images): ≤ 2 h; postoperative residual fluorescence in the tumor bed, FGS cohorts (22Rv1 tumor xenografts; 10 nmol, surgery at 2 h): no significant fluorescence; biochemical recurrence (BCR), FGS cohort (22Rv1 tumor xenografts; monitored for over a month): no sign of BCR; survival, FGS cohorts (22Rv1 tumor xenografts; over 30 days): survived during the study; residual tumors in tumor margin/bed tissues, FGS cohorts (22Rv1 tumor xenografts; pathological analysis): no residual tumors; higher order aggregates (UV spectra), in words [1]: no noticeable higher order aggregates
